Legend:
BRM = BRM (Homo sapiens, UniProt P51531); assay: ATPase catalytic activity assay (ADP-Glo), BRM; conditions: 30 nM BRM, 400 μM ATP; for IC50: BRM ATPase: IC50 (uM)
BRG-1 = BRG-1 (Homo sapiens, UniProt P51532); assay: ATPase catalytic activity assay (ADP-Glo), BRG-1; conditions: for Emax: 1 h, read-out: BRG1 Max % Inhibition, ADP-Glo, 30 nM BRG-1, 400 μM ATP
BRG-1, sequence (P51532 whole entry): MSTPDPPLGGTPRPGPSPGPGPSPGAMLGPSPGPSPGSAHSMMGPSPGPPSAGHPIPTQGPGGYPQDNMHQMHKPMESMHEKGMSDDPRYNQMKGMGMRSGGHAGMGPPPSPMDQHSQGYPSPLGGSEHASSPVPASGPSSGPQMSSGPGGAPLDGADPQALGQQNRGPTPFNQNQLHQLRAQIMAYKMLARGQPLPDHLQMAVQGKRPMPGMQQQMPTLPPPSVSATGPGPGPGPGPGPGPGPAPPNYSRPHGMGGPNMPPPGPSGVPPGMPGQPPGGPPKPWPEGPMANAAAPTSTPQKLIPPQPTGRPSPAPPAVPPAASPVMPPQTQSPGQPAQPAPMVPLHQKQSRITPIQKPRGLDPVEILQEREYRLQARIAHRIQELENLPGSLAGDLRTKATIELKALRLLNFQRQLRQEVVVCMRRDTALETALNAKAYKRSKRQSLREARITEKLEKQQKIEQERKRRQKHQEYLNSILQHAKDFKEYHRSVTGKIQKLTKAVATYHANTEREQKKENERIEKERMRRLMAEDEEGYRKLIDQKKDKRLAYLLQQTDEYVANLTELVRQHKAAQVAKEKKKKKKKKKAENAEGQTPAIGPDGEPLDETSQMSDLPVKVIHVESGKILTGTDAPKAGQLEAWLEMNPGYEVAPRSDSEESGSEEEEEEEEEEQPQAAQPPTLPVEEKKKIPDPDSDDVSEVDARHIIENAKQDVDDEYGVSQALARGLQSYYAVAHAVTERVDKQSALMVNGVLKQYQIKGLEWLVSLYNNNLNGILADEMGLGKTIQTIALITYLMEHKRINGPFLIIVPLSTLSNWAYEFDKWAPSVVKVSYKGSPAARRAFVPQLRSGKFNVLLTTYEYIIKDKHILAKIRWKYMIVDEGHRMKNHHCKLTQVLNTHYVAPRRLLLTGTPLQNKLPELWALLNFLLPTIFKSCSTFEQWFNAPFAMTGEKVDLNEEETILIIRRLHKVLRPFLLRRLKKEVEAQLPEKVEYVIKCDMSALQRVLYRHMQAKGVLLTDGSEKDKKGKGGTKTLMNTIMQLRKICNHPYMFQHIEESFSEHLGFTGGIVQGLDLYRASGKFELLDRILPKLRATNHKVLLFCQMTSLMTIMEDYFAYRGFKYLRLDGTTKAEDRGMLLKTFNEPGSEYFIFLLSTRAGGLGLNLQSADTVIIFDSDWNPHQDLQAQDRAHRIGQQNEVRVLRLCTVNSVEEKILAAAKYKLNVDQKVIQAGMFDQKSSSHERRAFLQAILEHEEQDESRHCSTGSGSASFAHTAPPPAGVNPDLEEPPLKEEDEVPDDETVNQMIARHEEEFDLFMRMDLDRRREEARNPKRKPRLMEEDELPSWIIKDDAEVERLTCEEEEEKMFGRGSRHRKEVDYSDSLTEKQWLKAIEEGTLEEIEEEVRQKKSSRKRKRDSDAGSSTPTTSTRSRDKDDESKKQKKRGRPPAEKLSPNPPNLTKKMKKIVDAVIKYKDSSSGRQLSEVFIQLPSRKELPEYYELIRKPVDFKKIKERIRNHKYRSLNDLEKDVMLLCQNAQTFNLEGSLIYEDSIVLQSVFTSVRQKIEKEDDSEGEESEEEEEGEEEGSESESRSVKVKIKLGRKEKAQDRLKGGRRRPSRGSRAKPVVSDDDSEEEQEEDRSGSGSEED
Method: The ATPase catalytic activity of BRM or BRG-1 was measured by an in vitro biochemical assay using ADP-Glo™ (Promega, V9102). The ADP-Glo™ kinase assay is performed in two steps once the reaction is complete. The first step is to deplete any unconsumed ATP in the reaction. The second step is to convert the reaction product ADP to ATP, which will be utilized by the luciferase to generate luminesce and be detected by a luminescence reader, such as Envision.
Then following addition of 5 μL of ADP-Glo™ Reagent provided in the kit, the reaction incubates at room temperature for 40 minutes. Then 10 μL of Kinase Detection Reagent provided in the kit is added to convert ADP to ATP, and the reaction incubates at room temperature for 60 minutes. Finally, luminescence measurement is collected with a plate-reading luminometer, such as Envision.

BRM, sequence (P51531 whole entry): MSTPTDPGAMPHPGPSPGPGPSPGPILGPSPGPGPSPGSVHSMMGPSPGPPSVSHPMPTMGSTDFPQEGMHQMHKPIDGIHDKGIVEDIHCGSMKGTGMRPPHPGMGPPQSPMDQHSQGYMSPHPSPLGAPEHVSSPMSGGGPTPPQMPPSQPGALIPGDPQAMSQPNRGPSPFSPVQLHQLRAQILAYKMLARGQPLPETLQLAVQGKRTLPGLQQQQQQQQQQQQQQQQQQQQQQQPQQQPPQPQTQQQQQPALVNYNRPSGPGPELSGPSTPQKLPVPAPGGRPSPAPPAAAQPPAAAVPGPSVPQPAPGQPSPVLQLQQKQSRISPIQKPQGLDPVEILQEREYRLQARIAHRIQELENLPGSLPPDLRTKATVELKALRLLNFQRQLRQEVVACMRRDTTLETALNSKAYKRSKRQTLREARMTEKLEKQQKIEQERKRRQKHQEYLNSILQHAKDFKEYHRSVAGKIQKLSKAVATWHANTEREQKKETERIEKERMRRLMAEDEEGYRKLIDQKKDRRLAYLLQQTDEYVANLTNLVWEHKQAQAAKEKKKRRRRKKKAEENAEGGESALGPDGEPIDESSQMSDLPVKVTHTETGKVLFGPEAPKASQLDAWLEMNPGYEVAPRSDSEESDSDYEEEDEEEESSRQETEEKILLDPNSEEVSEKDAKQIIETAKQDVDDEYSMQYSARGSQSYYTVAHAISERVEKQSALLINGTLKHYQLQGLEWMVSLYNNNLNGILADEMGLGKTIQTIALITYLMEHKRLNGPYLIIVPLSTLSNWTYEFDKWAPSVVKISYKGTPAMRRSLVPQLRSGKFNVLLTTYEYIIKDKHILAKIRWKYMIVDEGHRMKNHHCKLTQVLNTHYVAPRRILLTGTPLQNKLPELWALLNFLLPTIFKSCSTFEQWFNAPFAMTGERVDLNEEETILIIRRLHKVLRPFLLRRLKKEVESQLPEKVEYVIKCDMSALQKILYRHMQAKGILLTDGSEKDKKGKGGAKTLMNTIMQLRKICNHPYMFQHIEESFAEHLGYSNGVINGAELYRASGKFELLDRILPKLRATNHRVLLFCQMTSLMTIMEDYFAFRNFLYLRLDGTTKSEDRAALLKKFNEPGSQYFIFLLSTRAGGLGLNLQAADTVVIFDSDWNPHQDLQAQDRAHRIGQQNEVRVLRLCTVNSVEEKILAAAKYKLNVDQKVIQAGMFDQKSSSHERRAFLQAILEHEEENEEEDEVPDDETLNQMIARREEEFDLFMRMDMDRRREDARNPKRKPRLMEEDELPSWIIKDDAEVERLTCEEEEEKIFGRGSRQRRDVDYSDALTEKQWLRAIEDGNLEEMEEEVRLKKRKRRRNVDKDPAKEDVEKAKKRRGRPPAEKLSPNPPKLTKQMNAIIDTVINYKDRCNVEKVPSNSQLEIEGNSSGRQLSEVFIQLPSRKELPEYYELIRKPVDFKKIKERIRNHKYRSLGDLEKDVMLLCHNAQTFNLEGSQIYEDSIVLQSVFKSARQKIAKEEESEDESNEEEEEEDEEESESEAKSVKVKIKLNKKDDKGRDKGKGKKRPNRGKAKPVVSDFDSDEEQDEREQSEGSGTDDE

BRM Max % Inhibition (BRM)	IC50 (BRM)	IC50 (BRG-1)	Emax (BRG-1)	SMILES
84%	0.1 to 0.5 µM	> 1000 nM	44%	C[C@@]1(C#N)COCc2ccc(C(=O)NCc3cc4nc(-c5cnn(C(F)F)c5)ccc4cn3)cc21 [Compound 504]
91%	0.1 to 0.5 µM	> 1000 nM	46%	Cc1cc(-c2ccc3cnc(CNC(=O)c4ccc5c(c4)[C@](C)(C#N)COC5)cc3n2)on1 [Compound 231]
107%	0.1 to 0.5 µM	500 to 1000 nM	80%	CC(=O)N1CCOc2c(-c3ccc4cnc(CNC(=O)c5ccc6c(c5)[C@](C)(C#N)COC6)cc4n3)cccc21 [Compound 320]
100%	< 0.1 µM	100 to 500 nM	93%	C[C@@]1(F)COCc2ccc(C(=O)NCc3cc4nc(-c5cccc(N6CCC6)n5)ccc4cn3)cc21 [Compound 295]
96%	0.1 to 0.5 µM	500 to 1000 nM	73%	CNC(=O)c1cc(-c2ccc3cnc(CNC(=O)c4ccc5c(c4)[C@](C)(C#N)COC5)cc3n2)ccn1 [Compound 450]
92%	0.1 to 0.5 µM	> 1000 nM	50%	C[C@@]1(C#N)COCc2ccc(C(=O)NCc3cc4nc(-c5cc(F)c(=O)n(C(F)F)c5)ccc4cn3)cc21 [Compound 449]
97%	0.1 to 0.5 µM	500 to 1000 nM	78%	C[C@@]1(C#N)COCc2ccc(C(=O)NCc3cc4nc(-n5ccc(N6CCC6)n5)ccc4cn3)cc21 [Compound 426]
95%	0.1 to 0.5 µM	> 1000 nM	70%	C[C@@]1(C#N)COCc2ccc(C(=O)NCc3cc4nc(N5CCn6nccc6C5)ccc4cn3)cc21 [Compound 486]
81%	> 1 µM	> 1000 nM	18%	C[C@@]1(O)COCc2ccc(C(=O)NCc3cc4nc(-c5ccccc5)sc4cn3)cc21 [Compound 119]
100%	< 0.1 µM	100 to 500 nM	91%	COc1nn(C)cc1-c1ccc2cnc(CNC(=O)c3ccc4c(c3)[C@](C)(F)COC4)cc2c1 [Compound 251]
97%	0.1 to 0.5 µM	500 to 1000 nM	83%	C[C@@]1(C#N)COCc2ccc(C(=O)NCc3ncc4ccc(-c5ccccc5)cc4n3)cc21 [Compound 522]
99%	< 0.1 µM	100 to 500 nM	98%	C[C@@]1(C#N)COCc2ccc(C(=O)NCc3cc4nc(-c5ccnc(N6CCC6)c5F)ccc4cn3)cc21 [Compound 412]
93%	0.1 to 0.5 µM	500 to 1000 nM	72%	CNC(=O)c1cccc(-c2ccc3cnc(CNC(=O)c4ccc5c(c4)[C@](C)(C#N)COC5)cc3n2)c1 [Compound 483]
84%	> 1 µM	> 1000 nM	19%	C[C@@]1(CO)COCc2ccc(C(=O)NCc3cc4nc(-c5ccccc5)sc4cn3)cc21 [Compound 115]
94%	0.1 to 0.5 µM	> 1000 nM	68%	C[C@@]1(C#N)COCc2ccc(C(=O)NCc3cc(CCc4ccccc4)ccn3)cc21 [Compound 25]
82%	> 1 µM	> 1000 nM	24%	C[C@@]1(CO)CCc2ccc(C(=O)NCc3cc4nc(-c5ccccc5)ccc4cn3)cc21 [Compound 90]
99%	< 0.1 µM	100 to 500 nM	90%	C[C@@]1(C#N)COCc2ccc(C(=O)NCc3cc4cc(-c5ccccc5)ccc4nn3)cc21 [Compound 494]

Continued, compound first:

SMILES	BRM Max % Inhibition (BRM)	IC50 (BRM)	IC50 (BRG-1)	Emax (BRG-1)
C[C@@]1(C#N)COCc2ccc(C(=O)NCc3cc4nc(-c5cncc(N6CC[C@@H](F)C6)n5)ccc4cn3)cc21 [Compound 291]	100%	< 0.1 µM	< 100 nM	97%
COc1cncc(-c2nc3cc(CNC(=O)c4ccc5c(c4)[C@](C)(C#N)COC5)ncc3s2)n1 [Compound 344]	94%	0.1 to 0.5 µM	500 to 1000 nM	57%
COC(=O)N1CCCC(c2ccc3cnc(CNC(=O)c4ccc5c(c4)[C@](C)(C#N)COC5)cc3n2)C1 (some centres unmarked) [Compound 121]	81%	> 1 µM	> 1000 nM	44%
C[C@@]1(F)COCc2ccc(C(=O)NCc3cc4nc(-c5ccnc(N6CCC6)c5F)cnc4cn3)cc21 [Compound 207]	98%	< 0.1 µM	100 to 500 nM	89%
C[C@@]1(C#N)COCc2ccc(C(=O)NCc3cc4cc(N5CCn6ncc(C(F)F)c6C5)ccc4nn3)cc21 [Compound 219]	94%	0.1 to 0.5 µM	500 to 1000 nM	57%
COC1(c2ccccc2)CCN(c2ccnc(CNC(=O)c3ccc4c(c3)[C@](C)(C#N)COC4)c2)C1 (some centres unmarked) [Compound 58]	92%	0.1 to 0.5 µM	500 to 1000 nM	50%
C[C@@]1(F)COCc2ccc(C(=O)NCc3cc4nc(-c5ccnc(N6CCC6)n5)cnc4cn3)cc21 [Compound 190]	98%	< 0.1 µM	100 to 500 nM	89%
C[C@@]1(C#N)COCc2ccc(C(=O)NCc3cc(/C=C/c4ccccc4)ccn3)cc21 [Compound 4]	97%	0.1 to 0.5 µM	> 1000 nM	74%
C[C@@]1(F)COCc2ccc(C(=O)NCc3cc4nc(-c5cncc(N6CCC6)n5)ccc4nn3)cc21 [Compound 276]	98%	< 0.1 µM	100 to 500 nM	95%
C[C@@]1(C#N)COCc2ccc(C(=O)NCc3cc4nc(-c5cncc(N6CC[C@H](F)C6)n5)ccc4cn3)cc21 [Compound 311]	99%	< 0.1 µM	100 to 500 nM	95%
C[C@@]1(F)COCc2ccc(C(=O)NCc3cc4nc(-c5ccnc(N6CCC6)n5)sc4cn3)cc21 [Compound 245]	96%	0.1 to 0.5 µM	500 to 1000 nM	75%
C[C@@]1(C#N)COCc2ccc(C(=O)NCc3cc4nc(-c5cn(C6COC6)nc5C(F)F)ccc4cn3)cc21 [Compound 145]	94%	0.1 to 0.5 µM	500 to 1000 nM	65%
C[C@@]1(F)COCc2ccc(C(=O)NCc3cc4nc(-c5cncc(C6CC6)n5)ccc4nn3)cc21 [Compound 255]	100%	< 0.1 µM	100 to 500 nM	90%
C[C@@]1(C#N)COCc2ccc(C(=O)NCc3cc([C@H]4C[C@@H](c5cccc(N6CCOCC6)n5)C4)ccn3)cc21 [Compound 80]	83%	0.1 to 0.5 µM	> 1000 nM	29%
C[C@@]1(C#N)COCc2ccc(C(=O)NCc3cc4c(cn3)CCN(c3cccc(C(F)F)n3)C4)cc21 [Compound 304]	86%	0.1 to 0.5 µM	> 1000 nM	38%
